Patent US10159736B2, “Plant virus particles for delivery of photosensitive agents” (Case Western Reserve University, priority 2016, dated 2018)

How the values were obtained:
B16F10 = details: cited from earlier work
[1] = Storage in the fridge, visual examination; format: physicochemical; details: stored in the fridge over a period of a month
RAW 264.7 macrophages = test: LIVE/DEAD cell viability assay of macrophages after photodynamic therapy; format: cell-based
Description: Uptake of PS-CPMV* and its efficacy for PDT of RAW 264.7 murine macrophages was initially tested using a LIVE/DEAD cell viability assay in a 96-well plate. The macrophages were allowed 8 h to take up either PS-CPMV* at a concentration of 5.0 μM PS or CPMV, CPMV*, and PS controls normalized according to PS or CPMV concentration. After washing, PDT was initialized using a mirror setup where light from a projector was reflected on the cell plate for 30 min. Cells were incubated overnight, then stained with a combination of calcein-AM and ethidium homodimer-1 to detect live and dead cells, respectively (FIG. 4a).
RAW 264.7 macrophages were seeded overnight in 96-well plates, with one plate used as a dark control, at a concentration of 10,000 cells/100 μL Dulbecco's modified Eagle's medium (DMEM, Gibco) supplemented with 10% (v/v) fetal bovine serum (FBS, Atlanta Biologicals) and 1% (v/v) penicillin-streptomycin (pen-strep, Life Technologies). Cells were then incubated for 8 h at 37° C. and 5% CO2 with triplicates of CPMV, CPMV*, PS-CPMV*, or PS corresponding to 5.0 μM PS or normalized for nanoparticle concentration accordingly. […] Cell viability was determined using a LIVE/DEAD assay for mammalian cells (Thermo Fisher) following manufacturer's procedures for cell staining and using a Zeiss Axio Observer Z1 motorized FL inverted microscope for imaging. […]

B16F10 melanoma cells [2] = test: MTT cell viability assay after white light illumination (Example II)
Description: Untreated cells and drug-free TMV carrier were used as controls. The TMV concentration was normalized to the drug-loaded concentration and corresponded to the highest amount of TMV used to determine the IC50 curves (FIG. 9A). Drug candidates and controls were incubated with B16F10 cells for 8 hours, washed, and then exposed to white light from a Vivitek D950HD projector under a rectangle (10.5 cm×11 cm) for 30 minutes. Following illumination, cells were returned to the incubator for 48 hours. Cell viability was assessed using an MTT cell viability assay and analyzed using GraphPad Prism.
Cell viability was assayed using MTT and LIVE/DEAD assays. Confluent cells were removed using 0.05% (w/v) trypsin-EDTA, added to 96-well plates (100 μL/well, 2×10^4 cells/mL), and grown overnight. Native TMV, drug loaded Zn-EpPorTMV, vs. free Zn-EpPor were added to cells using 0.025, 0.05, 0.1, 0.25, 0.5, 1.0, and 5.0 μM Zn-EpPor; cells were incubated for 8 hours at 37° C. and 5% CO2. Assays were done in triplicates and repeated at least twice. […] Cell viability was assessed using an MTT cell proliferation assay (ATCC); the procedure was as per manufacturer's recommendation. Alternatively, cell viability and cytotoxicity was determined using the LIVE/DEAD Viability/Cytotoxicity Kit for mammalian cells (ThermoFisher). […] Images were analyzed for percentage cell viability using ImageJ 1.47d.

B16F10 melanoma cells [3] = test: Flow cytometry of cell uptake (Zn-EpPor fluorescence); format: cell-based; details: 10^6 particles/cell or corresponding amount of free drug, 8 hours
Description: Cell binding and uptake of the PDT delivery system was measured using both flow cytometry and confocal microscopy. […] Cell uptake was measured as a function of Zn-EpPor fluorescence (FIG. 8A). […] These studies were complemented with confocal microscopy to determine the intracellular fate of Zn-EpPor delivered by TMV. Following an 8-hour incubation of B16F10 cells with Zn-EpPorTMV particles, cells were fixed and stained with wheat germ agglutinin. Confocal fluorescence microscopy confirmed that Zn-EpPor is both taken up by the cells, and also dispersed throughout the cytoplasm (FIG. 8B), allowing it to exert their mechanism of action. The intracellular distribution of the Zn-EpPor drug was consistent with intracellular release of the cargo. We hypothesize that TMV is taken up and trafficked to the endolysosome, as previously reported. Wen et al., Bioconjugate chemistry, 26 (1), 51-62 (2015). […]
Confluent B16F10 cells were removed using Hank's based cell dissociation buffer (ThermoFisher) and added to 96-well v-bottom plates (200 μL/well, 2.5×10^6 cells/mL). […] Cells were washed 2 times, then resuspended in FACS buffer and analyzed on a BD FACSAria flow cytometer. Live cells were gated and 10,000 events were recorded; all experiments were carried out in triplicate. Data were analyzed on FlowJo 8.6.3 software.

B16F10 melanoma cells [4] = test: LIVE/DEAD cell viability assay of melanoma cells; format: cell-based; details: 5.0 μM, 8 hours, light 30 minutes
From the text: The MTT assay is based on a yellow tetrazolium dye that is reduced to purple formazan via NAD(P)H-dependent oxidoreductase enzymes. This reduction is highly dependent on cellular metabolism in the mitochondria and is not high in cells with low cellular metabolic activity. Liu et al., Journal of neurochemistry, 69 (2), 581-93 (1997). Because photosensitizers are known to impact the functionality of the mitochondria, the MTT assay may be compromised as a result of impaired mitochondrial activity. Therefore, LIVE/DEAD cell viability assays were performed to further confirm therapeutic efficacy and cell killing. Cells were incubated with 5.0 μM of free Zn-EpPor or Zn-EpPorTMV, or corresponding controls, for 8 hours, washed, and illuminated for 30 minutes. This drug concentration was based on the MTT assay; it is over four times the IC50 value in B16F10 melanoma and should give maximal cell killing. The LIVE/DEAD assay was applied the next day, imaged, and images were analyzed using ImageJ to determine percent cell viability (FIG. 9B). […] On the contrary, cells exposed to both Zn-EpPor or Zn-EpPorTMV and light had 100% cell killing.
The staining procedure was as per manufacturer's recommendation.

## porfimir sodium [Photofrin]
B16F10; melanin-heavy cells, such as the B16F10 cell line
  efficacy in pigmented melanoma: ineffective

## C=Cc1c(C)c2cc3nc(c(CC(=O)N[C@@H](CC(=O)O)C(=O)O)c4[nH]c(cc5nc(cc1[nH]2)C(C)=C5CC)c(C)c4C(=O)O)[C@@H](CCC(=O)O)[C@@H]3C [Talaporfin, talaporfin]
B16F10; B16F10, previously reported
  IC50: 8.5 µM

## C#Cc1ccc(C2=C3C=CC(=N3)C(c3cc[n+](C)cc3)=c3ccc4[n]3[Zn][n]3c2ccc3C(c2cc[n+](C)cc2)=C2C=CC(=N2)C=4c2cc[n+](C)cc2)cc1.[I-].[I-].[I-] [Zn-EpPor, 5-(4-ethynylphenyl)-10,15,20-tris-(4-methylpyridin-4-ium-1-yl)porphyrin-zinc(II) triiodide]
[1]
  dispersion on storage: aggregation and sedimentation
RAW 264.7 macrophages; 5.0 μM PS, 8 h uptake, light 30 min, staining next day
  elimination of macrophages after PDT: completely eliminating the macrophages
RAW 264.7 macrophages; absence of light therapy
  cytotoxicity in dark controls: no cytotoxicity
B16F10 melanoma cells [2]; 8 hours incubation, white light 30 minutes, MTT after 48 hours, concentration as Zn-EpPor
  IC50: 0.54 µM
B16F10 melanoma cells [2]; no illumination
  cell killing in the dark: no cell killing was observed
B16F10 melanoma cells [3]
  mean fluorescence intensity (MFI): 956
B16F10 melanoma cells [4]
  cell killing: 100%
